Experimental data reported in patent US6818407B2, “Anti-endotoxic antimicrobial cationic peptides and methods of use therfor” (priority 1998, dated 2004).
Marks after values point to notes of the source that are not given here. Ends that are not written are not given here.

Experiments:
V. anguillarum [1] = assay: Single intraperitoneal injection of peptide along with V. anguillarum into juvenile coho salmon; type: in vivo; details: single injection of peptide along with bacteria; bacteria alone control 60%
Description: (§1) Fish loss from disease is a significant problem in aquaculture worldwide. However, expression of natural cationic peptide genes in fish could increase disease resistance because of continual cellular production of the antimicrobial peptides. In order to choose optimal peptides for transgenic fish, the antimicrobial activities of some cationic peptides were determined by testing minimum inhibitory concentrations (MICs) in vitro. […] The in vivo effect of CEME was examined by intraperitoneal injection of the peptide along with V. anguillarum into juvenile coho salmon. Fish in the bacteria alone control group had 60% mortality, while fish receiving peptide and bacteria injections had 82% mortality. […] Therefore, constant delivery of CEME and Pleurocidin-CN using intraperitoneal mini-osmotic pumps were carried out. Twelve days after pump implantation, the fish received intraperitoneal injections of V. anguillarum. The CEME and pleurocidin-CN pump group had longer survival time and lower mortalities than the control groups (50% Vs. 13%, and 75% Vs. 5%, respectively). Indolicidin transgenic cutthroat trout were made using a construct including an MT promoter, growth hormone signal, pre-region, indolicidin, and terminator. Transgenic individuals were identified by serum analysis using PCR with construct-specific oligonucleotide primers. […]

V. anguillarum [2] = assay: Protection of coho salmon, peptide delivered constantly by intraperitoneal mini-osmotic pump; type: in vivo, juvenile coho salmon; details: for Accumulated Mortalities: 30 days, saline pump control 75%, bacteria alone 67%
Description: Constant delivery of peptide P-CN using intraperitoneal mini-osmotic pumps was carried out. Briefly, juvenile coho salmon were divided into three treatment groups: A. Bacterial injection alone (12 fish). B. Fish saline osmotic pump and bacterial injection (12 fish). C. A combination of P-CN osmotic pump and bacterial injection (19 fish). The fish were anaesthetized and implanted (peritoneal cavity) with mini-osmotic pumps having a pumping rate of 0.13 µl/hour. Heaters were placed in the tanks to keep the water temperature between 12 and 13° C. Pumps were filled with concentrated P-CN to deliver approximately […] peptide to fish over a 30-day period. Twelve days after pump implantation, the fish received intraperitoneal injections of V. anguillarum ([…]). Mortalities were first noticed on day 3 for the group injected with bacteria alone and on day 5 for the group which received saline osmotic pumps as well as bacterial injections. However, there was no significant difference in mortality between the bacterial injection alone group and the saline osmotic pump group (67% vs. 75%). Mortalities were delayed for the P-CN osmotic pump group. The P-CN osmotic pump group had only one fish die on day 6 over the 30 days experiments with an accumulated mortality of 5%. […] Furthermore, since cationic peptides are not effective in a single treatment and constant administration is necessary, this argues for the potential success of transgenic fish expressing peptide P-CN.
as §1, with “terminator.” for “terminator. Transgenic individuals were identified by serum analysis using PCR with construct-specific oligonucleotide primers.”

[3] = test system: Pseudomonas aeruginosa outer membrane barrier altered (Z61); type: cell-based; details: Mueller Hinton Broth
Description: (§2) The biological activity of the peptides can be determined by standard methods known to those of skill in the art, such as Aminimal inhibitory concentration (MIC)≅ assay described in the present examples, whereby the lowest concentration at which no change in OD is observed for a given period of time is recorded as MIC. Alternatively, Afractional inhibitory concentration (FIC)≅ is also useful for determination of synergy between the peptides of the invention, or the peptides in combination with known antibiotics. FICs are performed by checkerboard titrations of peptides in one dimension of a microtiter plate, and of antibiotics in the other dimension, for example. The FIC is calculated by looking at the impact of one antibiotic on the MIC of the other and vice versa. […] Preferably, an FIC of less than 0.5 is obtained for synergism. As used herein, FIC can be determined as follows: [formula]
(§3) These peptides varied in activity (Table 11), however, the C-terminally capped pleurocidin especially and its N-terminally capped lysine derivative had much better activities against a variety of bacteria including Vibrio anguillarum (Va), Aeromonas salmonicida (As), Staphylococcus epidermidis (C621), Salmonella typhimurium wild type (C587) and phoP phoQ mutant (C610), and Pseudomonas aeruginosa wild type (K799) and outer membrane barrier altered (Z61). The antimicrobial peptide CEME, a fusion peptide made from portions of an insect defensin ceropin A and the bee venom peptide melittin (Piers and Hancock, Mol. Microbiol., 12:951-8, 1994), as well as the known antibiotics polymyxin B and gentamicin were used as controls. Replacing the pleurocidin N-terminus with the dermaseptin N-terminus had no effect. Replacing pleurocidin N-terminus with the ceratoxin N-terminus reduced activity. […] Amidating the C-terminus improved antimicrobial activity. Replacing the pleurocidin C-terminus with the misgurin C-terminus had no effect.
(§4) Bacteria included Vibrio anguillarum (Va), Aeromonas salmonicida (As), Staphylococcus epidermidis (C621), Salmonella typhimurium wild type (C587) and phoP phoQ mutant (C6 10), and Pseudomonas aeruginosa wild type (K799) and outer membrane barrier altered (Z61).

[4] = test system: Salmonella typhimurium wild type (C587); type: cell-based; details: Mueller Hinton Broth
Description: as §2, §3, §4

[5] = test system: Salmonella typhimurium phoP phoQ mutant (C610); type: cell-based; details: Mueller Hinton Broth
Description: as §2, §3, §4

[6] = test system: Aeromonas salmonicida (As); type: cell-based; details: Mueller Hinton Broth
Description: as §2, §3, §4

Vibrio anguillarum (Va) = type: cell-based; details: Mueller Hinton Broth
Description: as §2, §3, §4

[7] = test system: Pseudomonas aeruginosa wild type (K799); type: cell-based; details: Mueller Hinton Broth
Description: as §2, §3, §4

[8] = test system: Staphylococcus epidermidis (C621); type: cell-based; details: Mueller Hinton Broth
Description: as §2, §3, §4

S. aureus K147 = assay: MIC, broth microdilution assay in polypropylene microtiter trays; type: cell-based; details: average of three separate experiments
Procedure, shortened: (§5)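 Each peptide's inhibitory endpoint is based on optical density: absence of any OD change for the chosen duration defines the minimal inhibitory concentration.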

S. epidermis = assay: as above; type: cell-based; details: average of three separate experiments
Procedure, shortened: as §5

E. coli [9] = assay: as above; type: cell-based; details: average of three separate experiments
Procedure, shortened: as §5

S. aureus = assay: as above; type: cell-based; details: average of three separate experiments
Procedure, shortened: as §5

P. aeruginosa = assay: as above; type: cell-based; details: average of three separate experiments
Procedure, shortened: as §5

[10] = test system: Pseudomonas aeruginosa strain M2; assay: Protection of neutropenic CD-1 mice challenged with Pseudomonas aeruginosa; type: in vivo; parameters: Survival post bacterial challenge, surviving mice: reference not given here; details: for Survival (%) post bacterial challenge: PBS 8
Procedure, shortened: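 Neutropenia induced by three i.p. cyclophosphamide doses ([…], alternate days); mice then infected i.p. with 200-300 organisms/mouse. Peptides (200 µg/mouse = 8 mg/kg) in buffered citrate given i.p. at 30 min (single) or 30 min and 16 hrs (double) post-challenge; PBS control; mean of 2 experiments.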

[11] = test system: Pseudomonas aeruginosa PAO; assay: Chronic Pseudomonas aeruginosa lung infection in rats, aerosol treatment; type: in vivo; details: lungs, quantitative culture; aerosol 10 ml of 5 mg/ml once daily for three days; untreated control 1.2 × 10^6
Description: Fifteen animals were utilized in these experiments (5 animals in each of three groups). All animals were inoculated intratracheal with 10^4 Pseudomonas aeruginosa PAO in agar beads. Three days following inoculation, rats were exposed to aerosol preparations from and Aero-Tech II nebulizer (CIS-US, Bedford, Mass.). The nebulizer was operated at 45 psi, with a flow rate of 10 L/min and contained 10 ml of the preparation to be aerosolized. The 10 ml volume was dispensed in 25-30 minutes. Animals were treated once daily for three days; control animals received daily exposure to 10 mls of 10 mM sodium citrate (pH 7.0); one treatment group received daily exposure to 10 mls of 10 mM sodium citrate (pH 7.0) containing 5 mg/ml of CM3; one treatment group received daily exposure to 10 mls of 10 mM sodium citrate (pH 7.0) containing 5 mg/ml of Cpα2. Animals were sacrificed on day 3, at one hour following the last exposure. The lungs of the treatment and control animals were removed for quantitative culture.

P. aeruginosa (H103) = assay: Synergy study (checkerboard titration) with hen white lysozyme; type: cell-based
Salmonella typhi = assay: as above; type: cell-based
E. coli [12] = assay: as above; type: cell-based
[13] = test system: mutant (Nal B, H744) of P. aeruginosa; assay: microbe, parasite or virus in culture; type: cell-based
Procedure, shortened: (§6)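 Checkerboard titration in Mueller Hinton broth, peptide against carbenicillin or ciprofloxacin, inoculum 10 μl of 10^−4 dilution of overnight culture, 18-24 h at 37 °C. Combination MIC is the lowest concentration reducing growth >50%. FIC index = A/MIC A + B/MIC B, with ≤~0.5 synergy, 1.0 additivity, >1.0 antagonism.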

[14] = test system: β-lactamase derepressed mutant (H547) of P. aeruginosa; assay: microbe, parasite or virus in culture; type: cell-based; details: P. aeruginosa H547
Procedure, shortened: as §6

[15] = Lethal endotoxemia in galactosamine-sensitized mice; type: in vivo, CD-1 mice; details: peptide 200 μg intraperitoneal within 10 min of 10 μg LPS; 24 hours post injection; 5 mice per group; no peptide 100
Description: To confirm this in vivo, endotoxic shock was induced by intraperitoneal injection of 10 μg of E.coli 0111:B4 LPS in phosphate-buffered saline (PBS; pH 7.2) into galactosamine-sensitized 8- to 10- week old female CD-1 mice (5 per group). In experiments involving peptides, 200 μg in 100 μl of sterile water was injected at separate intraperitoneal sites within 10 min of LPS injection. Survival was monitored at 24 hours post injection.

[16] = cationic peptide concentration, combined with lysozyme
[17] = lysozyme concentration, combined with the peptide

CC[C@H](C)[C@H](NC(=O)CNC(=O)[C@@H](NC(=O)[C@H](CCCCN)NC(=O)[C@H](CCCCN)NC(=O)[C@H](Cc1ccccc1)NC(=O)[C@H](CC(C)C)NC(=O)[C@H](CCCCN)NC(=O)[C@H](Cc1c[nH]c2ccccc12)NC(=O)[C@@H](N)CCCCN)[C@@H](C)CC)C(=O)NCC(=O)N[C@@H](C)C(=O)N[C@H](C(=O)N[C@@H](CC(C)C)C(=O)N[C@@H](CCCCN)C(=O)N[C@H](C(=O)N[C@@H](CC(C)C)C(=O)N[C@H](C(=O)N[C@H](C(=O)NCC(=O)N[C@@H](CC(C)C)C(=O)N1CCC[C@H]1C(=O)N[C@@H](C)C(=O)N[C@@H](CC(C)C)C(=O)N[C@H](C(=O)N[C@@H](CO)C(=O)O)[C@@H](C)CC)[C@@H](C)O)[C@@H](C)O)C(C)C)C(C)C [CEME, reference compound]
Mortality (V. anguillarum [1]): 82% | Mortality, pump group (V. anguillarum [2]; CEME by intraperitoneal mini-osmotic pump, control group 50%): 13%

GWGSFFKKAAHVGKHVGKAALTHYL-NH2 [P-CN]
MIC Z61 [3]: 4 µg/mL | MIC C587 [4]: 4 µg/mL | MIC C610 [5]: <0.5 µg/mL | MIC As [6]: 1 µg/mL | MIC Va (Vibrio anguillarum (Va)): 2 µg/mL | MIC K799 [7]: 8 µg/mL | MIC C621 [8]: 4 µg/mL | Accumulated Mortalities (V. anguillarum [2]; P-CN osmotic pump, 19 fish): 5% | Accumulated Mortalities (V. anguillarum [2]; P-CN osmotic pump, 19 fish, listed as pleurocidin-CN): 5% | Mortalities (fish died on the day) (V. anguillarum [2]; day 6 after V. anguillarum challenge, 19 fish, P-CN osmotic pump): 1

KWKKFIKSLTKSAAKTVVKTAKKPLIV [CM3]
MIC S. aureus K147 (S. aureus K147): >64 µg/mL | MIC S. epidermis (S. epidermis): 16 µg/mL | MIC E. coli (E. coli [9]): 1 µg/mL | MIC S. aureus (S. aureus): >64 µg/mL | MIC P. aeruginosa (P. aeruginosa): 5 µg/mL | Survival post bacterial challenge, surviving mice ([10]; double dose (200 μg per mouse i.p. at 30 min and 16 hrs), 16 hr): 13 | Survival post bacterial challenge, surviving mice ([10]; double dose, 24 hr): 13 | Survival post bacterial challenge, surviving mice ([10]; double dose, 41 hr): 11 | Survival post bacterial challenge, surviving mice ([10]; double dose, 48 hr): 11 | Survival post bacterial challenge, surviving mice ([10]; double dose, 64 hr): 10 | Survival (%) post bacterial challenge ([10]; double dose, 64 hr): 76% | Survival post bacterial challenge, surviving mice ([10]; double dose, 72 hr): 10 | Survival (%) post bacterial challenge ([10]; double dose, 72 hr): 76% | Survival post bacterial challenge, surviving mice ([10]; double dose, 96 hr): 8 | Survival (%) post bacterial challenge ([10]; double dose, 96 hr): 61% | Survival post bacterial challenge, surviving mice ([10]; single dose (200 μg per mouse i.p. at 30 min), 16 hr): 15 | Survival post bacterial challenge, surviving mice ([10]; single dose, 24 hr): 15 | Survival post bacterial challenge, surviving mice ([10]; single dose, 41 hr): 14 | Survival post bacterial challenge, surviving mice ([10]; single dose, 48 hr): 13 | Survival post bacterial challenge, surviving mice ([10]; single dose, 64 hr): 12 | Survival (%) post bacterial challenge ([10]; single dose, 64 hr): 80% | Survival post bacterial challenge, surviving mice ([10]; single dose, 72 hr): 11 | Survival (%) post bacterial challenge ([10]; single dose, 72 hr): 73% | Survival post bacterial challenge, surviving mice ([10]; single dose, 96 hr): 11 | Survival (%) post bacterial challenge ([10]; single dose, 96 hr): 73% | Mean Colony Forming Units +/− S.D. [11]: 7.4 × 10^4 +/− 6.7 × 10^4* CFU | FIC for combination of cationic peptide and lysozyme (P. aeruginosa (H103)): 0.50 | Lowest [CP] showing synergy (P. aeruginosa (H103); [16]): 1.3 µg/mL | Lowest [Lyso] showing synergy (P. aeruginosa (H103); [17]): 15.6 µg/mL | FIC for combination of cationic peptide and lysozyme (Salmonella typhi): 0.75 | Lowest [CP] showing synergy (Salmonella typhi; [16]): 2.61 µg/mL | Lowest [Lyso] showing synergy (Salmonella typhi; [17]): 250 µg/mL | FIC for combination of cationic peptide and lysozyme (E. coli [12]): 0.31 | Lowest [CP] showing synergy (E. coli [12]; [16]): 0.041 µg/mL | Lowest [Lyso] showing synergy (E. coli [12]; [17]): 15.6 µg/mL | MIC A MIC of Peptides ([13]; peptide alone, P. aeruginosa mutant Nal B, H744 (Table 5)): 2 µg/mL | (A) Peptide doses together with Cipro ([13]; peptide concentration in combination with ciprofloxacin, Nal B, H744): .5 µg/mL | (B) MIC of Carb when combined with peptide ([14]; Carbenicillin with peptide at concentration (A)): 32 µg/mL | FIC index ([14]; peptide + Carbenicillin, about 0.5 or less synergy, 1.0 additivity, >1.0 antagonism): 0.75 | MIC A MIC of Peptides ([14]; peptide alone): 2 µg/mL | (A) Peptide doses together with Carb ([14]; peptide concentration in combination with Carbenicillin): .5 µg/mL | Mortality (%) [15]: 80%
